Results from patent US10125098B2, “Therapeutic compounds and methods of use thereof” (GENENTECH, INC., priority 2014, dated 2018).
Like-named read-outs stand apart in the source and are kept apart here.

Columns and labels:
[1] = target: T1, hNav1.7 (Homo sapiens, UniProt Q15858); experiment: Tritiated compound binding (LBA) to membranes from cells expressing hNav1.7 and the β1 subunit, competitive binding; settings: competitive binding vs 100 pM [3H]compound, 18 h, room temperature, membranes with hNav1.7 and β1 subunit
T1 construct: expressed in transfected cells
T1 sequence (Q15858 1-1977 isoform Q15858-3): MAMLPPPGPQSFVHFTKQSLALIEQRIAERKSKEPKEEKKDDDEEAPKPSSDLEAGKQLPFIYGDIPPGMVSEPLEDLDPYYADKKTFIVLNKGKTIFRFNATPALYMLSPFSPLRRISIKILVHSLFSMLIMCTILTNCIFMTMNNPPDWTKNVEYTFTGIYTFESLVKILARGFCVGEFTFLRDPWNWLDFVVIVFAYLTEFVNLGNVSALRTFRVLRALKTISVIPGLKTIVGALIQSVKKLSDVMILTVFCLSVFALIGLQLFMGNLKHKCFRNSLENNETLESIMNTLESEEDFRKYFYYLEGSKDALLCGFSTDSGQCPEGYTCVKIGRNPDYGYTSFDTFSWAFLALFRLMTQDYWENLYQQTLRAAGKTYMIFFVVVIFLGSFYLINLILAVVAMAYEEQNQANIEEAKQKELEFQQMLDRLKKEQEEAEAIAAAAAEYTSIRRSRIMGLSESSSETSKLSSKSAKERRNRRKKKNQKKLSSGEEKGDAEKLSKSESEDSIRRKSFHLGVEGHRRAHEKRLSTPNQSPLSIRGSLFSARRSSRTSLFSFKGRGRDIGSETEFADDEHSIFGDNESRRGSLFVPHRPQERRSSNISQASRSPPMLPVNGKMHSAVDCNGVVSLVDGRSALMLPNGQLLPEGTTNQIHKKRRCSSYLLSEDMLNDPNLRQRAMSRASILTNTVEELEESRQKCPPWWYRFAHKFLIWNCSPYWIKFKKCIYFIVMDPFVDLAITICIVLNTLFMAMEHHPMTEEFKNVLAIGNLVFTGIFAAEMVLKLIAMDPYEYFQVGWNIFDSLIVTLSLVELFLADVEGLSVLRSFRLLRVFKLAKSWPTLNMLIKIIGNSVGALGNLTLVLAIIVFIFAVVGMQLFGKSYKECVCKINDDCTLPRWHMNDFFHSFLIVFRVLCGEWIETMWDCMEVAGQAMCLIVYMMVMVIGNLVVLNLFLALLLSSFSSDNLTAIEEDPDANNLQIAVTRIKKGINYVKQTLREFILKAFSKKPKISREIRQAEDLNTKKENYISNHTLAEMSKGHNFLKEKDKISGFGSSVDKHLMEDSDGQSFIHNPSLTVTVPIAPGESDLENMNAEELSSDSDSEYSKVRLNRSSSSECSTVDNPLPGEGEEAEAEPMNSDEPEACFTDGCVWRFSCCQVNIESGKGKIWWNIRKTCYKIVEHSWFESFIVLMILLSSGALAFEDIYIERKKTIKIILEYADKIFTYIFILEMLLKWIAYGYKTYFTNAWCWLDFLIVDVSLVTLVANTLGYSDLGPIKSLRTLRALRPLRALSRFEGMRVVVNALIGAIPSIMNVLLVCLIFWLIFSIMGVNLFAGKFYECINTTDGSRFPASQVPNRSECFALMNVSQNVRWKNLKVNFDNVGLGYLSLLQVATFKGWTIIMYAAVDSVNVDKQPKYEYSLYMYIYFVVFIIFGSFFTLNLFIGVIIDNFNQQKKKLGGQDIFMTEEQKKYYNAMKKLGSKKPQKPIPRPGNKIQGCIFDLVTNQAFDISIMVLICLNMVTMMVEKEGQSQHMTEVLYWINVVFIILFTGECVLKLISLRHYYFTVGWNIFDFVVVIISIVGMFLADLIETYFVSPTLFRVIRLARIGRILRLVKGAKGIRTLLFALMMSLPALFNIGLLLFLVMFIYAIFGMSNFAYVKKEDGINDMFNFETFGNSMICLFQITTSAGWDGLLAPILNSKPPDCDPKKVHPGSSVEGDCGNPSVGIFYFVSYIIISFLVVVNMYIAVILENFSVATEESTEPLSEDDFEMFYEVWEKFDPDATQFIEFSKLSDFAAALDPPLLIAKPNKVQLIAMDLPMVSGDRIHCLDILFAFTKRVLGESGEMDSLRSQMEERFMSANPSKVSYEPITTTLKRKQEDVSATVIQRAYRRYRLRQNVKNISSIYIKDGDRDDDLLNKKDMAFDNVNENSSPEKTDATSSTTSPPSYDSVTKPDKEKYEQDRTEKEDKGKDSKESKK
T1 sequence (Q07699 19-218 partner): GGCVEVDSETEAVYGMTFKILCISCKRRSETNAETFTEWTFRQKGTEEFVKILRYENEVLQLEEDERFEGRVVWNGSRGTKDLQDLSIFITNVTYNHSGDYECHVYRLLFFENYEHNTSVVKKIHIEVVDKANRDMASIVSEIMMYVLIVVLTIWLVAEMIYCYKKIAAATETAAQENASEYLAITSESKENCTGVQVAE
In short: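 Membranes from cells expressing hNav1.7 with β1 were incubated 18 h at room temperature with 100 pM tritiated formula (I) compound and increasing test compound, in 100 mM NaCl, 20 mM Tris HCl pH 7.4, 0.01% BSA.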

[2] = target: T2, human NaV1.7 (Homo sapiens, UniProt Q15858); experiment: Patch voltage clamp electrophysiology assay (EP), NaV1.7; format: cell-based; settings: HEK-293 cells stably expressing NaV1.7 with β1 subunit; whole-cell patch clamp, membrane potential −60 mV (inactivated state)
T2 construct: permanently transfected with an expression vector containing the full-length cDNA coding for the desired human sodium channel α-subunit; expressed in transfected cells; host or cells: HEK-293
T2 sequence (Q15858 1-1977 isoform Q15858-3): as the sequence (Q15858 1-1977 isoform Q15858-3) above
T2 sequence (Q07699 19-218 partner): as the sequence (Q07699 19-218 partner) above
In short: (§1)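 HEK-293 cells stably expressing human α-subunit with β1; whole-cell patch clamp (PatchXpress or manual), ambient temperature, pH 7.4 external NaCl, CsF internal. Held at −60 mV (full inactivation), stepped to −150 mV for 20 ms, then test pulse; percent current decrease after compound wash-on taken as block.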

[3] = target: T3, NaV1.5 (Homo sapiens, UniProt Q14524); experiment: Patch voltage clamp electrophysiology assay (EP), NaV1.5; format: cell-based
T3 construct: permanently transfected with an expression vector containing the full-length cDNA coding for the desired human sodium channel α-subunit; expressed in transfected cells; host or cells: HEK-293
T3 sequence (Q14524 whole entry): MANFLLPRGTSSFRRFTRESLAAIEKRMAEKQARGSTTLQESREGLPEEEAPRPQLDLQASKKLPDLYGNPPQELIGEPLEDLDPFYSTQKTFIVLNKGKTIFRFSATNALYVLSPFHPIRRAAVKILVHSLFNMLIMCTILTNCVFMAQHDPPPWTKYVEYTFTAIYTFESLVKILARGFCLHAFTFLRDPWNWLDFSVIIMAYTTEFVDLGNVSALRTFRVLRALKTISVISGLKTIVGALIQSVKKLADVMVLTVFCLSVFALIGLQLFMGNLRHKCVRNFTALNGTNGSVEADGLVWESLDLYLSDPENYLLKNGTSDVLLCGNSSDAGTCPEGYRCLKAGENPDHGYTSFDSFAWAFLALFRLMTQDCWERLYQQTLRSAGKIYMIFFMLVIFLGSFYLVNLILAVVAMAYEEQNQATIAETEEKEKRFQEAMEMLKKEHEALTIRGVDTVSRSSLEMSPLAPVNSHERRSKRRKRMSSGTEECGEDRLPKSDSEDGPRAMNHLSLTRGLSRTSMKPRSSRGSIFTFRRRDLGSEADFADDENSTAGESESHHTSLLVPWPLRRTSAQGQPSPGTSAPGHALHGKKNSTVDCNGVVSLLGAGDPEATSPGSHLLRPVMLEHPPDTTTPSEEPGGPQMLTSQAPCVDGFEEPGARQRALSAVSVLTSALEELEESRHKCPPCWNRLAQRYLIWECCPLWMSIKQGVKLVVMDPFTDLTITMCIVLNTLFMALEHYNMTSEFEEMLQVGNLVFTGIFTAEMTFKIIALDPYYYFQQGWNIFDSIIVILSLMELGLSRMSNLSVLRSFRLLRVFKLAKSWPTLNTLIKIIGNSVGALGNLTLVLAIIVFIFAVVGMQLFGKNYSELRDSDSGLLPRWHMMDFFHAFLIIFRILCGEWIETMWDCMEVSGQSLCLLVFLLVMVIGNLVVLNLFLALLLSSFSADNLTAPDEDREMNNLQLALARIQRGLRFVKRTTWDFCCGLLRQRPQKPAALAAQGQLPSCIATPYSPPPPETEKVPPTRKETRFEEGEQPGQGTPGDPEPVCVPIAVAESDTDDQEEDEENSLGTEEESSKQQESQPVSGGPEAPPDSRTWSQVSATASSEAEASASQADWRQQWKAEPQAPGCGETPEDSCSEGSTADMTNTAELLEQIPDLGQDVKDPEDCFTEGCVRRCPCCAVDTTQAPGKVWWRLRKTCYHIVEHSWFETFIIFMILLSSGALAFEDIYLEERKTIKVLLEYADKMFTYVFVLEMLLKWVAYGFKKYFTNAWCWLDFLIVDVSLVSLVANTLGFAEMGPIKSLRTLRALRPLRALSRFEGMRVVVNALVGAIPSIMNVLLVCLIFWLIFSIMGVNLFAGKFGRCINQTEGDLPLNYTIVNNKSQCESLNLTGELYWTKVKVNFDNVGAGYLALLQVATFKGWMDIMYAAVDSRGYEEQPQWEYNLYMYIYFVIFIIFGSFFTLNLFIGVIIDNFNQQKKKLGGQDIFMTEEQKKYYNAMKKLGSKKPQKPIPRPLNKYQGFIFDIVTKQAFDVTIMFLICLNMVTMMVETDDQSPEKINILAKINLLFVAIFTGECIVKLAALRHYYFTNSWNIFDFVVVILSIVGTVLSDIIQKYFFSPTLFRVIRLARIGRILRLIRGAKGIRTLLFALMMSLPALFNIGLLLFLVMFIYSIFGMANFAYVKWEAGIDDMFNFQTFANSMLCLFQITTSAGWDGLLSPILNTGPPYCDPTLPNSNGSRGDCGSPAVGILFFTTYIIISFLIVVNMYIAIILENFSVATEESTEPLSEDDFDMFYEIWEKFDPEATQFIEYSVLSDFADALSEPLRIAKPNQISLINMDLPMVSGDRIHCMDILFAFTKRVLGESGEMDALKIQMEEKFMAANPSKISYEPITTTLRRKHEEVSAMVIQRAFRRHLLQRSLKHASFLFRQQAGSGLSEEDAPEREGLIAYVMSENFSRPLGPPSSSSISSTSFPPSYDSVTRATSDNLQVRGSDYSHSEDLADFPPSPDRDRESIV
In short: as §1

[4] = HEK-293 cells stably expressing NaV1.5 with β1 subunit, whole-cell patch clamp, membrane potential −60 mV (inactivated state), read-out: Nav1.5
[5] = human, HEK-293 cells stably expressing human NaV1.5 with β1 subunit, pH 7.4, HEK-293 cells stably expressing NaV1.5 with β1 subunit, whole-cell patch clamp, membrane potential −60 mV (inactivated state)

O=C(O)[C@@H]1C=C(C(F)(F)F)CN1C(=O)c1cc(C2CC2)c(OCC23CC4CC(CC(C4)C2)C3)cc1F [Example 203]
IC50 [1]: ≥ 10000 nM | IC50 [2]: 10000 nM | IC50 [3, 4]: 19000 nM

O=C(O)[C@@H]1C[C@@H](F)CN1C(=O)c1c(F)cc(OCC23CC4CC(CC(C4)C2)C3)cc1C1CC1 [Example 204, (2S,4R)-1-(4-(adamantan-1-ylmethoxy)-2-cyclopropyl-6-fluorobenzoyl)-4-fluoropyrrolidine-2-carboxylic acid]
IC50 [1]: 560 nM | IC50 [2]: 7800 nM | IC50 [3, 4]: 23000 nM

CO[C@H]1CN(C(=O)c2cc(C3CC3)c(OCC34CC5CC(CC(C5)C3)C4)cc2F)[C@H](C(=O)O)C1C (stereo partly drawn) [Example 205, (2S,4R)-1-(4-(adamantan-1-ylmethoxy)-5-cyclopropyl-2-fluorobenzoyl)-4-methoxy-3-methylpyrrolidine-2-carboxylic acid]
IC50 [1]: 170 nM | IC50 [2]: 2200 nM | IC50 [3, 4]: 25000 nM

O=C(O)C[C@@H]1CCCN1C(=O)c1cc(C2CC2)c(OCC23CC4CC(CC(C4)C2)C3)cc1F [Example 206, 2-((S)-1-(4-(adamantan-1-ylmethoxy)-5-cyclopropyl-2-fluorobenzoyl)pyrrolidin-2-yl)acetic acid]
IC50 [1]: 260 nM | IC50 [2]: 2600 nM | IC50 [3, 4]: 16000 nM

CO[C@@H]1CN(C(=O)c2cc(C3CC3)c(OCC34CC5CC(CC(C5)C3)C4)cc2F)[C@H](C(=O)O)[C@H]1C [Example 207, (2S,3R,4S)-1-(4-(adamantan-1-ylmethoxy)-5-cyclopropyl-2-fluorobenzoyl)-4-methoxy-3-methylpyrrolidine-2-carboxylic acid]
IC50 [1]: 36 nM | IC50 [2]: 380 nM | IC50 [3, 4]: 16000 nM

CC1[C@H](O)CN(C(=O)c2cc(C3CC3)c(OCC3(F)CCN([C@@H](C)c4cc(Cl)cc(Cl)c4)CC3)cc2F)[C@@H]1C(=O)O (stereo partly drawn) [Example 208, (2S,4S)-1-(5-Cyclopropyl-4-((1-((S)-1-(3,5-dichlorophenyl)ethyl)-4-fluoropiperidin-4-yl)methoxy)-2-fluorobenzoyl)-4-hydroxy-3-methylpyrrolidine-2-carboxylic acid]
IC50 [1]: 82 nM | IC50 [2]: 210 nM | IC50 [3, 4]: 16000 nM

CC1[C@@H](C(=O)O)N(C(=O)c2cc(C3CC3)c(OCC3(F)CCN([C@@H](C)c4cc(Cl)cc(Cl)c4)CC3)cc2F)C[C@@H]1F (stereo partly drawn) [Example 209, (2S,4R)-1-(5-cyclopropyl-4-((1-((S)-1-(3,5-dichlorophenyl)ethyl)-4-fluoropiperidin-4-yl)methoxy)-2-fluorobenzoyl)-4-fluoro-3-methylpyrrolidine-2-carboxylic acid]
IC50 [1]: 200 nM | IC50 [2]: 700 nM | IC50 [3, 4]: 20000 nM

C[C@@H]1[C@H](F)CN(C(=O)c2cc(C3CC3)c(OCC34CC5CC(CC(C5)C3)C4)cc2F)[C@@H]1C(=O)O [Example 210a, (2S,3S,4S)-1-(4-(adamantan-1-ylmethoxy)-5-cyclopropyl-2-fluorobenzoyl)-4-fluoro-3-methylpyrrolidine-2-carboxylic acid]
IC50 [1]: 220 nM | IC50 [2]: 1900 nM | IC50 [3, 4]: 27000 nM

C[C@H]1[C@H](F)CN(C(=O)c2cc(C3CC3)c(OCC34CC5CC(CC(C5)C3)C4)cc2F)[C@@H]1C(=O)O [Example 210b, (2S,3R,4S)-1-(4-(adamantan-1-ylmethoxy)-5-cyclopropyl-2-fluorobenzoyl)-4-fluoro-3-methylpyrrolidine-2-carboxylic acid]
IC50 [1]: 30 nM | IC50 [2]: 810 nM | IC50 [3, 4]: 17000 nM

O=C(O)[C@@H]1C[C@H](C(F)(F)F)CN1C(=O)c1cc(C2CC2)c(OCC23CC4CC(CC(C4)C2)C3)cc1F [Example 211, (2S,4S)-1-(4-((adamantan-1-yl)methoxy)-5-cyclopropyl-2-fluorobenzoyl)-4-(trifluoromethyl)pyrrolidine-2-carboxylic acid]
IC50 [1]: 2300 nM | IC50 [2]: 6700 nM | IC50 [3, 4]: 14000 nM

O=C(c1cc(C2CC2)c(OCC23CC4CC(CC(C4)C2)C3)cc1F)N1CCC2CC21C(=O)O (stereo not drawn) [Example 212, 2-(4-((Adamantan-1-yl)methoxy)-5-cyclopropyl-2-fluorobenzoyl)-2-azabicyclo[3.1.0]hexane-1 carboxylicacid]
IC50 [1]: 290 nM | IC50 [2]: 3500 nM | IC50 [3, 4]: 17000 nM

O=C(O)[C@@H]1CC(O)(C(F)(F)F)CN1C(=O)c1cc(C2CC2)c(OCC23CC4CC(CC(C4)C2)C3)cc1F (stereo partly drawn) [Example 213, (2S)-1-(4-((adamantan-1-yl)methoxy)-5-cyclopropyl-2-fluorobenzoyl)-4-hydroxy-4-(trifluoromethyl)pyrrolidine-2-carboxylic acid]
IC50 [1]: 5300 nM | IC50 [2]: 3400 nM | IC50 [3, 4]: 7600 nM

COC1(C(F)(F)F)C[C@@H](C(=O)O)N(C(=O)c2cc(C3CC3)c(OCC34CC5CC(CC(C5)C3)C4)cc2F)C1 (stereo partly drawn) [Example 214, (2S)-1-(4-((Adamantan-1-yl)methoxy)-5-cyclopropyl-2-fluorobenzoyl)-4-methoxy-4-(trifluoromethyl)pyrrolidine-2-carboxylic acid]
IC50 [1]: 9700 nM | IC50 [2]: 8200 nM | IC50 [3, 4]: 11000 nM

O=C(O)C[C@@H]1CCN1C(=O)c1cc(C2CC2)c(OCC23CC4CC(CC(C4)C2)C3)cc1F [Example 215, 2-((S)-1-(4-((adamantan-1-yl)methoxy)-5-cyclopropyl-2-fluorobenzoyl)azetidin-2-yl)acetic acid]
IC50 [1]: 1100 nM | IC50 [2]: 5400 nM | IC50 [3, 5]: ≥ 30000 nM

CC(C)[C@H](NC(=O)c1cc(C2CC2)c(OCC2(F)CCN(Cc3cc(Cl)cc(C(F)(F)F)c3)CC2)cc1F)C(=O)O [Example 216, (4-((1-(3-Chloro-5-(trifluoromethyl)benzyl)-4-fluoropiperidin-4-yl)methoxy)-5-cyclopropyl-2-fluorobenzoyl)-L-valine]
IC50 [1]: 600 nM | IC50 [2]: 8600 nM | IC50 [3, 5]: ≥ 30000 nM

CC1(O)C[C@@H](C(=O)O)N(C(=O)c2cc(C3CC3)c(OCC34CC5CC(CC(C5)C3)C4)cc2F)C1 (stereo partly drawn) [Example 218, (2S)-1-(4-(adamantan-1-ylmethoxy)-5-cyclopropyl-2-fluorobenzoyl)-4-hydroxy-4-methylpyrrolidine-2-carboxylic acid]
IC50 [1]: 230 nM | IC50 [2]: 1600 nM | IC50 [3, 4]: 24000 nM

C[C@@H]1[C@@H](C(=O)O)N(C(=O)c2cc(C3CC3)c(OCC34CC5CC(CC(C5)C3)C4)cc2F)C[C@@H]1F [Example 219, (2S,3R,4R)-1-(4-(adamantan-1-ylmethoxy)-5-cyclopropyl-2-fluorobenzoyl)-4-fluoro-3-methylpyrrolidine-2-carboxylic acid]
IC50 [1]: 6.4 nM | IC50 [2]: 260 nM | IC50 [3, 4]: 12000 nM

O=C(O)[C@@H]1C[C@@H](F)CN1C(=O)c1cc(C2CC2)c(OCC2CCN(Cc3noc(-c4ccccc4Cl)n3)CC2)cc1F [Example 220, (2S, 4R)-1-(4-((1-((5-(2-chlorophenyl)-1,2,4-oxadiazol-3-yl)methyl)piperidin-4-yl)methoxy)-5-cyclopropyl-2-fluorobenzoyl)-4-fluoropyrrolidine-2-carboxylic acid]
IC50 [1]: 160 nM | IC50 [2]: 830 nM | IC50 [3, 5]: ≥ 30000 nM

O=C(O)[C@@H]1CC2(CC2)CN1C(=O)c1cc(C2CC2)c(OCC2(F)CCN(Cc3cc(C(F)(F)F)ccc3Cl)CC2)cc1F [Example 221, (S)-5-(4-((1-(2-chloro-5-(trifluoromethyl)benzyl)-4-fluoropiperidin-4-yl)methoxy)-5-cyclopropyl-2-fluorobenzoyl)-5-azaspiro[2.4]heptane-6-carboxylic acid]
IC50 [1]: 500 nM | IC50 [2]: 1100 nM | IC50 [3]: 16000 nM

O=C(O)[C@@H]1C[C@@H](F)CN1C(=O)c1cc(C2CC2)c(OCC2CCN(Cc3c(Cl)cccc3Cl)CC2)cc1F [Example 222, (2S,4R)-1-(5-cyclopropyl-4-((1-(2,6-dichlorobenzyl)piperidin-4-yl)methoxy)-2-fluorobenzoyl)-4-fluoropyrrolidine-2-carboxylic acid]
IC50 [1]: 13 nM | IC50 [2]: 210 nM | IC50 [3, 5]: ≥ 30000 nM

O=C(NC(C(=O)O)C(F)(F)F)c1cc(C2CC2)c(OCC23CC4CC(CC(C4)C2)C3)cc1F (stereo not drawn) [Example 223, 2-(4-(adamantan-1-ylmethoxy)-5-cyclopropyl-2-fluorobenzamido)-3,3,3-trifluoropropanoic acid]
IC50 [1]: 910 nM | IC50 [2]: 2900 nM | IC50 [3, 4]: 3900 nM

C[C@H]1OCN(C(=O)c2cc(C3CC3)c(OCC3CCN(Cc4c(Cl)cccc4Cl)CC3)cc2F)[C@@H]1C(=O)O [Example 224, (4S,5R)-3-(5-cyclopropyl-4-((1-(2,6-dichlorobenzyl)piperidin-4-yl)methoxy)-2-fluorobenzoyl)-5-methyloxazolidine-4-carboxylic acid]
IC50 [1]: 14 nM | IC50 [2]: 100 nM | IC50 [3, 4]: 22000 nM

C[C@H]1OCN(C(=O)c2cc(C3CC3)c(OCC3CCN(C(c4cc(Cl)cc(Cl)c4)C(F)(F)F)CC3)cc2F)[C@@H]1C(=O)O (stereo partly drawn) [Example 226, (4S,5R)-3-(5-cyclopropyl-4-((1-(1-(3,5-dichlorophenyl)-2,2,2-trifluoroethyl)-piperidin-4-yl)methoxy)-2-fluorobenzoyl)-5-methyloxazolidine-4-carboxylic acid]
IC50 [1]: 12 nM | IC50 [2]: 130 nM | IC50 [3, 4]: 6100 nM
